Data: patent publication US20230398099A1, “METHODS OF TREATING CONDITIONS RELATED TO THE S1P1 RECEPTOR” (Arena Pharmaceuticals, Inc., priority 2020, published 2023)
Where two headings read alike, the source gives them in different places.

Assays:
[1] = system: FITC-induced contact hypersensitivity (CHS)/dermatitis in BALB/c mice; assay: mouse model of FITC-induced contact dermatitis; assay type: in vivo; conditions: for skin thickening (ear thickening): FIG. 8
Excerpt: Fluorescein isothiocyanate isomer I (FITC) was used to induce contact hypersensitivity (CHS)/dermatitis in BALB/c mice by administering two sensitizing applications of the hapten onto the shaved flanks of the animals on Days 0 and 5, followed by three days of FITC challenge on the dorsal surface of both ears on Days 10-12. […] Treatment was initiated on Day −1 to model prophylactic treatment.

[2] = system: OVA-induced acute asthma model in mice; assay: ovalbumin (OVA)-induced acute asthma model; assay type: in vivo, mouse; conditions: QD Day 12-15; for immune cells in bronchoalveolar lavage (BAL): FIG. 9
Description: The OVA model is a widely used pre-clinical allergic asthma model and recapitulates many of the hallmarks of allergic asthma in humans. These include elevated IgE and TH2 related cytokines, mucus hypersecretion, airway inflammation, goblet cell hyperplasia, epithelial hypertrophy, and airway hyperreactivity to stimuli.
Mice were sensitized with an intraperitoneal (IP) injection of OVA and adjuvant on days 0 and 7. Mice were then challenged with intranasal delivery of OVA (10-200 μg) in saline on days 13-15 with endpoints conducted on day 16. Endpoints in this model generally included total and differential cell counts as well as inflammatory mediator content in the broncho-alveolar lavage fluid, airway hyperreactivity and detailed lung mechanics measured with the flexiVent™ rodent mechanical ventilator as well as histopathology and immunohistochemistry on lung sections.

[3] = molecular target: hS1P1 (Homo sapiens, UniProt P21453); assay: S1P1 GTPgS binding assay; assay type: biochemical; conditions: for EC50: S1P1 GTPgS binding, EC50 [95% confidence interval] (n)
Chain of hS1P1 (P21453 whole entry): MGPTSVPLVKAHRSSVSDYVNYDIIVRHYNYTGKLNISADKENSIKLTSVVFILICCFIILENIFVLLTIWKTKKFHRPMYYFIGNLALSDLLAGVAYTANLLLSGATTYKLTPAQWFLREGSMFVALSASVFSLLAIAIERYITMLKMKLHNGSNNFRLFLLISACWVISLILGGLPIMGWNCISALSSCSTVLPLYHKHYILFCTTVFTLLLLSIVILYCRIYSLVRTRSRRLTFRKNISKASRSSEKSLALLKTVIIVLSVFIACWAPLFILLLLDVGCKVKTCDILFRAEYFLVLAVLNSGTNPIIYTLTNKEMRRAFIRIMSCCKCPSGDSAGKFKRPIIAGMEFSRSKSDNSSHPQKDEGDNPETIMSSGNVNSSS

[4] = molecular target: hS1PR5 (Homo sapiens, UniProt Q9H228); assay: b-arrestin recruitment assay; assay type: cell-based; conditions: for EC50: EC50 [95% confidence interval] (n)
Chain of hS1PR5 (Q9H228 whole entry): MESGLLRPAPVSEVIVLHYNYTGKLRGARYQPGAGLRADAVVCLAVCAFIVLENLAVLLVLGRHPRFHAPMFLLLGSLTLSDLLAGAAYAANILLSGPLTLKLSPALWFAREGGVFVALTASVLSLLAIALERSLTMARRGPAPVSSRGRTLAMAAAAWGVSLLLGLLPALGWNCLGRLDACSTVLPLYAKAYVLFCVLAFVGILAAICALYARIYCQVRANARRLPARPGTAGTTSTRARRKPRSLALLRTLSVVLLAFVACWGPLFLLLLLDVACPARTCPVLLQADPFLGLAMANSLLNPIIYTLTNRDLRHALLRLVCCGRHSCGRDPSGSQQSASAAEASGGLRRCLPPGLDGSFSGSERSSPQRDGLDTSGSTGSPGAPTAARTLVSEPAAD

[5] = molecular target: hS1PR1 (Homo sapiens, UniProt P21453); assay: b-arrestin recruitment assay; assay type: cell-based; conditions: for EC50: b-arrestin recruitment, hS1PR1, EC50 [95% confidence interval] (n)
Chain of hS1PR1 (P21453 whole entry): as the sequence (P21453 whole entry) above

[6] = molecular target: S1P2 Receptor (Homo sapiens, UniProt O95136); assay: S1P2 receptor internalization; assay type: cell-based; conditions: N 5
Chain of S1P2 Receptor (O95136 whole entry): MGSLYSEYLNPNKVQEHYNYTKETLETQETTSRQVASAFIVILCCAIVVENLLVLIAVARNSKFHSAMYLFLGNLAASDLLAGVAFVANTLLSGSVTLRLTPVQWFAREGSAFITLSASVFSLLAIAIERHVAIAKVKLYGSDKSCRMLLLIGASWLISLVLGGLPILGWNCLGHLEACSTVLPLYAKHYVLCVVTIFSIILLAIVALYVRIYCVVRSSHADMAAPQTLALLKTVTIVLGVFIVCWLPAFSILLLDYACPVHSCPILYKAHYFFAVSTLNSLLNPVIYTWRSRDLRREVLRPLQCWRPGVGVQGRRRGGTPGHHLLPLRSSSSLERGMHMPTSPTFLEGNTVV

[7] = molecular target: T1, hS1PR4 (Homo sapiens, UniProt O95977); assay: b-arrestin recruitment assay; assay type: cell-based; conditions: for EC50: EC50 [95% confidence interval] (n)
T1 sequence (O95977 1-384): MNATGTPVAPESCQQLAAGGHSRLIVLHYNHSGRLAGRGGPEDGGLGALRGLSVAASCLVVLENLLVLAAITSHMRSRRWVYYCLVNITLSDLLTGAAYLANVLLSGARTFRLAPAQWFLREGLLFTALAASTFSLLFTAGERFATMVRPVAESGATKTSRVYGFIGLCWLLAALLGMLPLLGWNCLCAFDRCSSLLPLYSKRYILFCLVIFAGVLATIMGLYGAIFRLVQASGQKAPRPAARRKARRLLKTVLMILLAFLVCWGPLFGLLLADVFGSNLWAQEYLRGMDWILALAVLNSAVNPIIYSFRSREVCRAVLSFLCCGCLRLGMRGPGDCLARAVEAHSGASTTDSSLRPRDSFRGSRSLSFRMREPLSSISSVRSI

[8] = molecular target: hS1PR3 (Homo sapiens, UniProt Q99500); assay: b-arrestin recruitment assay; assay type: cell-based
Chain of hS1PR3 (Q99500 whole entry): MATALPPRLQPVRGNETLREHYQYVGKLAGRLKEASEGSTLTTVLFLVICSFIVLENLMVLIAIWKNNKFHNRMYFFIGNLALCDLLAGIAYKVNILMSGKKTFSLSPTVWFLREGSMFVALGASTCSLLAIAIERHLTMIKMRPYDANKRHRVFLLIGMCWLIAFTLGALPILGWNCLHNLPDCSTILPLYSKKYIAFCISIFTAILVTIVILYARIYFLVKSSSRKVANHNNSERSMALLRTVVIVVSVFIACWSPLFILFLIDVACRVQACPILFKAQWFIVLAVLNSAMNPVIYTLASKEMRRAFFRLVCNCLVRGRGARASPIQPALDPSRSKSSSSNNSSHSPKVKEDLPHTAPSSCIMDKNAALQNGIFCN

[9] = molecular target: hS1PR2 (Homo sapiens, UniProt O95136); assay: b-arrestin recruitment assay; assay type: cell-based
Chain of hS1PR2 (O95136 whole entry): as the sequence (O95136 whole entry) above

[10] = 1 mg/kg daily oral, compared to vehicle, dose-dependent, FIG. 6
[11] = 1 mg/kg daily oral, compared to vehicle, dose-dependent, FIG. 7

Row | Emax [3] [%] | EC50 [3] [nM] | EC50 ([4]; b-arrestin recruitment, hS1PR5) [nM] | Emax ([4]; read-out: Emax) [%] | Emax [5] [%] | EC50 [5] [nM] | Efficacy, % of S1P [6] [%] | EC50 ([7]; b-arrestin recruitment, hS1PR4) [nM] | Emax ([7]; read-out: Emax) [%] | Compound | other results
1 | 98 | 1.8 | 0.71 | 120 | 128 | 6.2 | 65 | 3.2 | 104 | CC(C)Cc1ccc(-c2nc(-c3ccc(CN4CC(C(=O)O)C4)c(F)c3)no2)cc1 [Compound 1, 1-{2-fluoro-4-[5-(4-isobutylphenyl)-1,2,4-oxadiazole-3-yl]benzyl}-3-azetidinecarboxylic acid] | skin thickening (ear thickening) ([1]; 0.1 mg/kg daily oral): had no effect; B cells in the skin [1, 10]: reduced; T cells in the skin [1, 10]: reduced; WBC count [1, 11]: reduced; lymphocyte frequency [1, 11]: reduced; skin thickening (ear thickening) ([1]; 1 mg/kg daily oral): reduced skin thickening; immune cells in bronchoalveolar lavage (BAL) ([2]; 0.1 mg/kg PO): did not have significant effect; immune cells in bronchoalveolar lavage (BAL) ([2]; 1 mg/kg PO): did not have significant effect; lung function measured by airway resistance or elastance ([2]; PO, Methacholine challenge, FIG. 10): no significant effect; EC50 [6]: 2510 nM
2 | 102 | 77 |  | 114 | 113 | 18.3 | 100 | 0.99 | 117 | CCCCCCCCCCCCC/C=C/[C@@H](O)[C@@H](N)COP(=O)(O)O [Compound S1P, sphingosine-1-phosphate] | Emax [8]: 113%; EC50 ([8]; b-arrestin recruitment, hS1PR3, EC50 [95% confidence interval] (n)): 13.9 nM; Emax [9]: 108%
3 | 104 |  | 7.3 | 117 | 130 |  |  | 117 | 93 | CC(C)Oc1ccc(-c2nc(-c3cccc4c3CC[C@@H]4NCCO)no2)cc1C#N [Ozanimod] | 

Row | Compound | Emax [3] [%] | EC50 [3] [nM] | EC50 ([4]; b-arrestin recruitment, hS1PR5) [nM] | Emax ([4]; read-out: Emax) [%] | Emax [5] [%] | EC50 [5] [nM] | Efficacy, % of S1P [6] [%] | EC50 ([7]; b-arrestin recruitment, hS1PR4) [nM] | Emax ([7]; read-out: Emax) [%] | other results
4 | CCCCCCCCc1ccc(CC[C@](N)(CO)COP(=O)(O)O)cc1 [Fingolimod(P)] |  |  |  |  |  |  | 80 | 0.76 |  | Emax ([4]; b-arrestin recruitment, hS1PR5, % relative to S1P): 62%; Emax ([7]; b-arrestin recruitment, hS1PR4, % relative to S1P): 94%
